Assay [1] has as its system Phosphorylation of ERK1/2 in MIA PaCa-2 cells. Briefly: Phospho-ERK1/2 MSD Assay. Format: cell-based. To be noted: MiaPaCa-2 cells. On the procedure:
(§1) For compounds in Table 9, the following assay conditions were employed:
Phospho-ERK1/2 MSD Assay:
Sixteen hours prior to compound treatment, MIA PaCa-2 cells were seeded in 96-well cell culture plates at a density of 25,000 cells/well and incubated at 37° C., 5% CO2. […] Following compound treatment, cells were stimulated with 10 ng/mL EGF (Roche 11376454001) for 10 min, washed with ice-cold Dulbecco's phosphate-buffered saline, no Ca^2+ or Mg^2+ (ThermoFisher Scientific 14190144), and then lysed in RIPA buffer (50 mM Tris-HCl pH 7.5, 1% Igepal, 0.5% sodium deoxycholate, 150 mM NaCl, and 0.5% sodium dodecyl sulfate) containing protease inhibitors (Roche 4693132001) and phosphatase inhibitors (Roche 4906837001). […] Assay plates were read on a Meso Scale Discovery Sector Imager 6000, and data were analyzed using a 4-parameter logistic model to calculate IC50 values.

Assay [2] has as its system Phosphorylation of ERK1/2 in A549 cells. Briefly: Phospho-ERK1/2 MSD Assay (A549). Format: cell-based.
In assay [3] the target is GDP-bound KRAS protein (aa 1-169), containing both G12C and C118A amino acid substitutions (Homo sapiens (Human), UniProt P01116, C118A/G12C). The assay can be described thus: Coupled Nucleotide Exchange Assay. To be noted: for IC50: read-out: Coupled Exchange IC50 (2 h). Format: biochemical. On the procedure:
as §1
Coupled Nucleotide Exchange Assay:
The assay plates were then read on a PerkinElmer EnVision Multilabel Reader, using AlphaScreen® technology, and data were analyzed using a 4-parameter logistic model to calculate IC50 values.

The mark [4] stands for this setting: read-out: pERK IC50 (4 h, MiaPaCa-2), 4 h compound treatment.
[5] abbreviates: Homo sapiens, A549, 4 h, read-out: pERK IC50 (4 h, A549), 4 h compound treatment.
The mark [6] stands for this setting: Homo sapiens, MIA PaCa-2, 4 h, read-out: pERK IC50 (4 h, MiaPaCa-2), 4 h compound treatment.
Setting [7] is: read-out: pERK IC50 (4 h, A549), 4 h compound treatment.

Structures are written as SMILES. Read-outs that look alike come from different tables or passages of the source.

Sequence of GDP-bound KRAS protein (aa 1-169), containing both G12C and C118A amino acid substitutions (P01116 other isoform, or with tags, fused parts or gaps G12C/C118A): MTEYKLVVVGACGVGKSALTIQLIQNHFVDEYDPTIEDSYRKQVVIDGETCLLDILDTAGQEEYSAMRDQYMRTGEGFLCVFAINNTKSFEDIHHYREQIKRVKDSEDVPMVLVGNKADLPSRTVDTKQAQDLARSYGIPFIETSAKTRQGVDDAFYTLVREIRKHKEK

As to `C=CC(=O)N1CC(NC(=O)Cn2c(C)c(C(=O)N3CCc4ccccc4[C@H]3C)c3cc(Br)cc(C)c32)C1` (stereo in doubt) [Example 2-2, 2-(5-Bromo-2,7-dimethyl-3-(((1R)-1-methyl-3,4-dihydro-2(1H)-isoquinolinyl)carbonyl)-1H-indol-1-yl)-N-(1-(2-propenoyl)-3-azetidinyl)acetamide|2-(5-bromo-2,7-dimethyl-3-(((1S)-1-methyl-3,4-dihydro-2(1H)-isoquinolinyl)carbonyl)-1H-indol-1-yl)-N-(1-(2-propenoyl)-3-azetidinyl)acetamide], the IC50 is 2.28 µM in assay [1] (setting [4]), 40.9 µM in assay [2] (setting [5]) and 0.25 µM in assay [3] (2 h compound pre-incubation).

`C=CC(=O)N1CC(NC(=O)Cn2c(C)c(C(=O)N3[C@H](C)Cc4c(OC)cccc4[C@H]3C)c3cc(Br)cc(C)c32)C1` (stereo in doubt) [Example 2-3]: the IC50 in assay [1] (setting [6]) was found to be 0.67 µM; in assay [2] (setting [5]), 51.7 µM; in assay [3] (2 h compound pre-incubation), 0.16 µM.

Regarding `C=CC(=O)N1CC(NC(=O)Cn2c(CC)c(C(=O)N3CCc4c(ccnc4OC)C3)c3cc(Cl)cc(C)c32)C1` [Example 1-1, 2-(5-Chloro-2-ethyl-3-((5-methoxy-3,4-dihydro-2,6-naphthyridin-2(1H)-yl)carbonyl)-7-methyl-1H-indol-1-yl)-N-(1-(2-propenoyl)-3-azetidinyl)acetamide], the IC50 in assay [1] (setting [6]) was 0.09 µM; in assay [2] (setting [5]), more than 100 µM. For the same compound, in assay [3] (5 min compound pre-incubation), the “Coupled Exchange IC50 (5 min)” value was 0.20 µM. Further, in assay [3] (2 h compound pre-incubation), the “Coupled Exchange IC50 (2 h)” value came to 0.07 µM.

In the case of `C=CC(=O)N1CC(NC(=O)Cn2c(CC)c(C(=O)N3CCc4c(cccc4OC)C3)c3cc(Cl)cc(C)c32)C1` [Example 1-2, 2-(5-Chloro-2-ethyl-3-((5-methoxy-3,4-dihydro-2(1H)-isoquinolinyl)carbonyl)-7-methyl-1H-indol-1-yl)-N-(1-(2-propenoyl)-3-azetidinyl)acetamide], the IC50 in assay [1] (setting [6]) was 0.13 µM; in assay [2] (setting [5]), more than 100 µM; in assay [3] (2 h compound pre-incubation) it was 0.06 µM.

For `C=CC(=O)N1CC(NC(=O)Cn2cc(C(=O)N3CCN(c4cc(C)ccn4)CC3)c3cc(Br)ccc32)C1` [Example 79], the 50% inhibitory concentration (IC50) was 11.8 µM in assay [1] (setting [6]) and more than 100 µM in assay [2] (setting [5]).

With `C=CC(=O)N1CC(NC(=O)Cn2c(C)c(C(=O)N3CCN(c4ccc(C#N)cn4)C[C@@H]3C)c3cc(Br)ccc32)C1` [Example 81], the IC50 in assay [1] (setting [6]) was 12.5 µM; in assay [2] (setting [5]), more than 100 µM.

Consider `C=CC(=O)N1CC(NC(=O)Cn2c(C)c(C(=O)N3CCN(c4ccc(C#N)cn4)CC3)c3cc(Br)ccc32)C1` [Example 83], for which the 50% inhibitory concentration (IC50) in assay [1] (setting [6]) was 13.6 µM; in assay [2] (setting [5]) it was more than 100 µM.

`C=CC(=O)N1CC(NC(=O)Cn2cc(C(=O)N3CCc4c(ccnc4OC)C3)c3cc(Br)ccc32)C1` [Example 89]: the figures for the half-maximal inhibitory concentration (IC50) in assay [1] (setting [6]) and in assay [2] (setting [5]) were 14.9 µM and more than 100 µM, respectively.

In the case of `C=CC(=O)N1CC(NC(=O)Cn2cc(C(=O)N3CCN(c4ccc(OC)cn4)CC3)c3cc(Br)ccc32)C1` [Example 93], the IC50 is 16.5 µM in assay [1] (setting [6]) and more than 100 µM in assay [2] (setting [5]).

For the compound `C=CC(=O)N1CC(NC(=O)Cn2cc(C(=O)N3CCc4c(ccc(Cl)c4Cl)C3)c3cc(Br)ccc32)C1` [Example 96], the IC50 in assay [1] (setting [6]) came to 17.4 µM; in assay [2] (setting [5]) it was 30.5 µM.

Consider `C=CC(=O)N1CC(NC(=O)Cn2cc(C(=O)N3CCN(c4ccc([N+](=O)[O-])cn4)CC3)c3cc(Br)ccc32)C1` [Example 99], for which the half-inhibitory concentration (IC50) in assay [1] (setting [6]) was 18.9 µM; in assay [2] (setting [5]), more than 100 µM.

For the compound `C=CC(=O)N1CC(NC(=O)Cn2c3c(c4cc(Br)ccc42)CCN(C(=O)OC(C)(C)C)C3)C1` [Example 100], the IC50 in assay [1] (Homo sapiens, MIA PaCa-2, read-out: pERK IC50 (4 h), 4 h compound treatment) is 19.4 µM; in assay [2] (Homo sapiens, read-out: pERK IC50 (4 h), 4 h compound treatment) it was more than 33.3 µM.

In the case of `C=CC(=O)N1CC(NC(=O)Cn2cc(C(=O)N3CCO[C@H](c4ccccc4)C3)c3cc(Br)ccc32)C1` [Example 103], the results for the IC50 in assay [1] (setting [6]) and in assay [2] (setting [5]) were 21.6 µM and more than 100 µM, respectively.

On to `C=CC(=O)N1CC(NC(=O)Cn2cc(C(=O)N3CCc4cc(Br)ccc4C3)c3cc(Br)ccc32)C1` [Example 104], for which the concentration for half-maximal inhibition (IC50) came to 21.7 µM in assay [1] (setting [6]) and 14.6 µM in assay [2] (setting [7]).

Consider `C=CC(=O)N1CC(NC(=O)Cn2cc(C(=O)N3CCc4cc(Br)ccc4C3)c3cc(Br)ccc32)C1` [Example 106], for which the half-inhibitory concentration (IC50) was 22.2 µM in assay [1] (setting [4]) and 44.7 µM in assay [2] (setting [7]).

As to `C=CC(=O)N1CC(NC(=O)Cn2cc(C(=O)OC)c3cc(Br)ccc32)C1` [Example 108], the IC50 in assay [1] (setting [6]) is 23.5 µM; in assay [2] (setting [5]) it was more than 100 µM.

For `C=CC(=O)N1CC(NC(=O)Cn2c(C)c(C(=O)N3CCc4ncccc4C3)c3cc(Br)ccc32)C1` [Example 116], the half-maximal inhibitory concentration (IC50) was 28.5 µM in assay [1] (setting [6]) and more than 100 µM in assay [2] (setting [5]).

For `C=CC(=O)N1CC(NC(=O)Cn2cc(C(=O)N3CCc4c(Br)cc(C)cc4C3)c3cc(Br)ccc32)C1` [Example 120], the IC50 in assay [1] (setting [6]) is 30.8 µM; in assay [2] (setting [5]), 28.4 µM.

For `C=CC(=O)N1CC(NC(=O)Cn2cc(C(=O)NCCc3nccs3)c3cc(Br)ccc32)C1` [Example 123], the half-maximal inhibitory concentration (IC50) in assay [1] (setting [6]) was 32.4 µM; in assay [2] (setting [5]) it was more than 100 µM.

`C=CC(=O)N1CC(NC(=O)Cn2cc(C(=O)N3CCc4cc(C(=O)OC)ccc4C3)c3cc(Br)ccc32)C1` [Example 124]: the values for the half-inhibitory concentration (IC50) in assay [1] (setting [6]) and in assay [2] (setting [5]) were 32.9 µM and more than 100 µM, respectively.

As for `C=CC(=O)N1CC(NC(=O)C(C)n2c(C)c(C(=O)N3CCc4c(cccc4OC)C3)c3cc(Cl)ccc32)C1` (stereo not drawn) [Example 126], the IC50 in assay [1] (setting [6]) amounted to 33.9 µM; in assay [2] (setting [5]) it was 48.4 µM.

Consider `C=CC(=O)N1CC(NC(=O)Cn2cc(C(=O)NCC(c3sccc3C)N(C)C)c3cc(Br)ccc32)C1` (stereo not drawn) [Example 127], for which the IC50 in assay [1] (setting [6]) was 34.3 µM; in assay [2] (setting [5]), more than 100 µM.

`C=CC(=O)N1CC(NC(=O)Cn2cc(C(=O)N3CCc4c(C#N)cccc4C3)c3cc(Br)ccc32)C1` [Example 134]: the IC50 was 38 µM in assay [1] (setting [6]) and more than 100 µM in assay [2] (setting [5]).

Turning to `C=CC(=O)N1CC(NC(=O)Cn2cc(C(=O)N3CCOC(c4ccccc4)C3)c3cc(Br)ccc32)C1` (stereo not drawn) [Example 138], the figures for the 50% inhibitory concentration (IC50) in assay [1] (setting [6]) and in assay [2] (setting [5]) were 40.5 µM and more than 100 µM, respectively.

On to `C=CC(=O)N1CC(NC(=O)Cn2cc(C(=O)N3CC4(CCN4c4ccccn4)C3)c3cc(Br)ccc32)C1` [Example 148], for which the half-inhibitory concentration (IC50) in assay [1] (setting [6]) is 50.2 µM; in assay [2] (setting [5]) it was more than 100 µM.

As to `C=CC(=O)N1CC(NC(=O)Cn2cc(C(=O)NCCOc3ccccc3C)c3cc(Br)ccc32)C1` [Example 156], the IC50 is 53.4 µM in assay [1] (setting [6]) and more than 100 µM in assay [2] (setting [5]).

Turning to `C=CC(=O)N1CC(NC(=O)Cn2cc(C(=O)N3CCc4c(OC)ccc(Br)c4C3)c3cc(Br)ccc32)C1` [Example 157], the half-inhibitory concentration (IC50) came out at 53.6 µM in assay [1] (setting [6]) and 42.5 µM in assay [2] (setting [5]).

For `C=CC(=O)N1CC(NC(=O)Cn2cc(C(=O)N3CCN(c4ccc(CN(C)C)cn4)CC3)c3cc(Br)ccc32)C1` [Example 159], the IC50 in assay [1] (setting [6]) was 57.4 µM; in assay [2] (setting [5]) it was more than 100 µM.

Take `C=CC(=O)N1CC(NC(=O)Cn2cc(C(=O)N3CCN(c4ccc([N+](=O)[O-])cc4)CC3)c3cc(Br)ccc32)C1` [Example 166]: the IC50 in assay [1] (setting [6]) and in assay [2] (setting [5]) was more than 100 µM each time.

In the case of `C=CC(=O)N1CC(NC(=O)Cn2cc(C(=O)NCCC(=O)Nc3ccccc3CC)c3cc(Br)ccc32)C1` [Example 167], the IC50 in assay [1] (setting [6]) and in assay [2] (setting [5]) was more than 100 µM each time.

In the case of `C=CC(=O)N1CC(NC(=O)Cn2cc(C(=O)NCCc3c(OC)ccc4ccccc34)c3cc(Br)ccc32)C1` [Example 168], the IC50 in assay [1] (setting [6]) and in assay [2] (setting [5]) was more than 100 µM throughout.

`C=CC(=O)N1CC(NC(=O)Cn2cc(C(=O)NCCC(=O)Nc3cc(C)ccc3C)c3cc(Br)ccc32)C1` [Example 169]: the IC50 in assay [1] (setting [6]) and in assay [2] (setting [5]) was more than 100 µM each time.

Consider `C=CC(=O)N1CC(NC(=O)Cn2cc(C(=O)NCCc3nc4c(s3)CCCC4)c3cc(Br)ccc32)C1` [Example 171], for which the IC50 in assay [1] (setting [6]) and in assay [2] (setting [5]) was more than 100 µM in each case.

For `C=CC(=O)N1CC(NC(=O)Cn2cc(C(=O)NCCCc3nc(C)cs3)c3cc(Br)ccc32)C1` [Example 172], the IC50 in assay [1] (setting [6]) and in assay [2] (setting [5]) was more than 100 µM in each case.

With `C=CC(=O)N1CC(NC(=O)Cn2cc(C(=O)NCCN(C)c3cccc(C)c3)c3cc(Br)ccc32)C1` [Example 173], the half-maximal inhibitory concentration (IC50) in assay [1] (setting [6]) and in assay [2] (setting [5]) was more than 100 µM each time.

As for `C=CC(=O)N1CC(NC(=O)Cn2cc(C(=O)NCCc3nc4ccccc4n3C)c3cc(Br)ccc32)C1` [Example 174], the IC50 in assay [1] (setting [6]) and in assay [2] (setting [5]) was more than 100 µM each time.

Consider `C=CC(=O)N1CC(NC(=O)Cn2cc(C(=O)On3nnc4cccnc43)c3cc(Br)ccc32)C1` [Example 175], for which the half-inhibitory concentration (IC50) in assay [1] (setting [6]) and in assay [2] (setting [5]) was more than 100 µM in each case.

In the case of `C=CC(=O)N1CC(NC(=O)Cn2c(C)c(C(=O)NCCC(=O)Nc3ccccc3CC)c3cc(Br)ccc32)C1` [Example 179], the IC50 in assay [1] (setting [6]) and in assay [2] (setting [5]) was more than 100 µM throughout.

Source of the values: US11053226B2, “KRAS G12C inhibitors and methods of using the same” (Amgen Inc., priority 2018, dated 2021).
